According to patent US7432276B2, “ABCA1 elevating compounds” (CV Therapeutics, Inc., priority 2005, dated 2008):

These compounds were tested on ABCA1 mRNA (assay: ABCA1 mRNA induction in THP-1 cells, QuantiGene branched DNA assay). Settings: 10 μM test compound, 18-20 hours.
Assay type: cell-based
Method: Modulation of expression of ABCA1 mRNA levels by the compounds of the invention was determined in the following assays.
Induction of ABC1 in THP-1 cells, was measured using QuantiGene® branched DNA assay as per manufacturer's instructions. Cultures of THP-1 were grown to subconfluence in DMEM/10% FBS before replacement with DMEM/BSA and 10 and 3 μM concentrations of the test compounds in DMSO for 18-20 hours. After treatment of cells with compounds, the cells were lysed with lysis buffer at 37° C. for 20 minutes. The cell lysate and ABCA1 specific probe (Genospectra, Inc., Fremont, Calif.) mix were added to the 96 well capture plate and hybridized at 53° C. for 16-18 hours. The signal was amplified using the amplifier and label probes provided with the QuantiGene® assay followed by addition of a luminescent alkaline phosphatase substrate, dioxitane. Luminescence was quantified in Victor V plate reader.
Step 1 • Cells are lysed to release mRNA in the presence of target probes. Target mRNA from lysed cells was then captured by hybridization and transferred to the Capture Plate.
Step 2 • Signal amplification was performed by hybridization of the bDNA Amplifier and Label Probe.
Step 3 • Addition of chemiluminescence substrate yielded a QuantiGene® signal proportional to the amount of mRNA present in the sample.
Table 1 presents the relative fold increase in ABCA1 expression over DMSO for various compounds of the invention when tested at a concentration of […].
For COc1cccc2c1[C@H]1Nc3ccc(-c4ccc(C(=O)O)cc4)cc3C(C)(C)[C@H]1CO2 [Number 106, 4-((12aS,6aR)-1-methoxy-7,7-dimethyl-7,12,12a,6a-tetrahydrochromano[4,3-b]quinolin-9-yl)benzoic acid], the “ABCA1 Induction Fold Increase over DMSO Vehicle” value (from here on “ABCA1 Induction Fold Increase”) was 4.8 FOLD INCREASE.
In the case of COc1cccc2c1[C@H]1Nc3ccc(-c4csnn4)cc3C(C)(C)[C@H]1CO2 [Number 73, (12aS,6aR)-1-methoxy-7,7-dimethyl-9-(1,2,3-thiadiazol-4-yl)-7,12,12a,6a-tetrahydrochromano[4,3-b]quinoline], the “ABCA1 Induction Fold Increase” value is reported as 8.0 FOLD INCREASE.
For CCOP(=O)(Cc1ccc2c(c1)C(C)(C)C1COc3c(OC)cc(Cl)cc3C1N2)OCC (stereo not shown) [Number 91, [(2-chloro-4-methoxy-7,7-dimethyl(7,12,12a,6a-tetrahydrochromano[4,3-b]quinolin-9-yl))methyl]diethoxyphosphino-1-one], the “ABCA1 Induction Fold Increase” value was 6.2 FOLD INCREASE.
In the case of CC1(C)c2cc(C(N)=O)ccc2NC2c3cccc(F)c3OCC21 (stereo not shown) [Number 50, 4-fluoro-7,7-dimethyl-7,12,12a,6a-tetrahydrochromano[4,3-b]quinoline-9-carboxamide], the “ABCA1 Induction Fold Increase” value is reported as 5.0 FOLD INCREASE.
In the case of CC1(C)c2cc(C(O)(C(F)(F)F)C(F)(F)F)ccc2NC2c3cc(C(=O)O)ccc3OCC21 (stereo not shown) [Number 16, 7,7-dimethyl-9-[2,2,2-trifluoro-1-hydroxy-1-(trifluoromethyl)ethyl]-7,12,12a,6a-tetrahydrochromano[4,3-b]quinoline-2-carboxylic acid], the “ABCA1 Induction Fold Increase” value is reported as 2.4 FOLD INCREASE.
For CC(C)=CCOC(=O)c1ccc2c(c1)C1Nc3ccc(B(O)O)cc3C(C)(C)C1CO2 (stereo not shown) [Number 15, 3-methylbut-2-enyl 9-(dihydroxyboramethyl)-7,7-dimethyl-7,12,12a,6a-tetrahydrochromano[4,3-b]quinoline-2-carboxylate], the “ABCA1 Induction Fold Increase” value was 1.8 FOLD INCREASE.
In the case of CCOc1ccc2c(c1)C(C)(C)C1COc3c(OC)ccc(Br)c3C1N2 (stereo not shown) [Number 78, 1-bromo-9-ethoxy-4-methoxy-7,7-dimethyl-7,12,12a,6a-tetrahydrochromano[4,3-b]quinoline], the “ABCA1 Induction Fold Increase” value is reported as 2.7 FOLD INCREASE.
For COc1cccc2c1C1Nc3ccc(C(O)(C(F)(F)F)C(F)(F)F)cc3C(C)(C)C1CO2 (stereo not shown) [Number 24, 1,1,1,3,3,3-hexafluoro-2-(1-methoxy-7,7-dimethyl(7,12,12a,6a-tetrahydrochromano[4,3-b]quinolin-9-yl))propan-2-ol], the “ABCA1 Induction Fold Increase” value was 6.5 FOLD INCREASE.
With COc1cccc2c1OC[C@@H]1[C@H]2Nc2ccc(CCC(=O)O)cc2C1(C)C [Number 27, 3-((6aS,12aR)-4-methoxy-7,7-dimethyl-7,12,12a,6a-tetrahydrochromano[4,3-b]quinolin-9-yl)propanoic acid] the “ABCA1 Induction Fold Increase” value was 3.3 FOLD INCREASE.
In the case of COc1cccc2c1OC[C@@H]1[C@@H]2Nc2ccc(C(=O)O)cc2C1(C)C [Number 49, (12aS,6aS)-4-methoxy-7,7-dimethyl-7,12,12a,6a-tetrahydrochromano[4,3-b]quinoline-9-carboxylic acid], the “ABCA1 Induction Fold Increase” value is reported as 1.7 FOLD INCREASE.
In the case of COc1cccc2c1[C@H]1Nc3ccc(-c4ccc(/C=C/C(=O)O)cc4)cc3C(C)(C)[C@H]1CO2 [Number 115, (2E)-3-[4-((12aS,6aR)-1-methoxy-7,7-dimethyl(7,12,12a,6a-tetrahydrochromano[4,3-b]quinolin-9-yl))phenyl]prop-2-enoic acid], the “ABCA1 Induction Fold Increase” value is reported as 2.2 FOLD INCREASE.
For CCOC(=O)c1ccc(-c2ccc3c(c2)C(C)(C)[C@@H]2COc4cccc(OC)c4[C@H]2N3)cc1 [Number 96, ethyl 4-((12aS,6aS)-1-methoxy-7,7-dimethyl-7,12,12a,6a-tetrahydrochromano[4,3-b]quinolin-9-yl)benzoate], the “ABCA1 Induction Fold Increase” value was 7.6 FOLD INCREASE.
With CC1(C)c2cc(C(O)(C(F)(F)F)C(F)(F)F)ccc2NC2c3ccc(C(=O)O)cc3OCC21 (stereo not shown) [Number 14, 7,7-dimethyl-9-[2,2,2-trifluoro-1-hydroxy-1-(trifluoromethyl)ethyl]-7,12,12a,6a-tetrahydrochromano[4,3-b]quinoline-3-carboxylic acid] the “ABCA1 Induction Fold Increase” value was 3.1 FOLD INCREASE.
With COc1cccc2c1[C@H]1Nc3ccc(-n4ncc(C(=O)N5CCS(=O)(=O)CC5)c4C)cc3C(C)(C)[C@H]1CO2 [Number 141, 1-((6aR,12aS)-6a,7,12,12a-tetrahydro-1-methoxy-7,7-dimethyl-6H-chromeno[4,3-b]quinolin-9-yl)1-5-methyl-1H-pyrazole-4-((1,1-dione-1,4-thiazaperhydroin-yl)methanone)] the “ABCA1 Induction Fold Increase” value was 7.1 FOLD INCREASE.
With CC1(C)c2cc(C(O)(C(F)(F)F)C(F)(F)F)ccc2NC2c3cc(F)cc(F)c3OCC21 (stereo not shown) [Number 67, 2-(2,4-difluoro-7,7-dimethyl(7,12,12a,6a-tetrahydrochromano[4,3-b]quinolin-9-yl))-1,1,1,3,3,3-hexafluoropropan-2-ol] the “ABCA1 Induction Fold Increase” value was 3.3 FOLD INCREASE.
COc1cc(Br)cc2c1OC[C@@H]1[C@H]2Nc2ccc(C(O)(C(F)(F)F)C(F)(F)F)cc2C1(C)C [Number 65, 2-((6aS,12aR)-2-bromo-4-methoxy-7,7-dimethyl(7,12,12a,6a-tetrahydrochromano[4,3-b]quinolin-9-yl))-1,1,1,3,3,3-hexafluoropropan-2-ol] was tested, and the “ABCA1 Induction Fold Increase” value was 3.2 FOLD INCREASE.
With CC(C)(C)OC(=O)N1CCN(C(=O)c2ccc3c(c2)C(C)(C)[C@H]2COc4cccc(F)c4[C@H]2N3)CC1 [Number 126, ((6aR,12aS)-6a,7,12,12a-tetrahydro-1-fluoro-7,7-dimethyl-6H-chromeno[4,3-b]quinolin-9-yl)(4-tert-butyl-carboxylate-piperazin-1-yl)methanone] the “ABCA1 Induction Fold Increase” value was 7.3 FOLD INCREASE.
With CCS(=O)(=O)N1CCN(C(=O)c2coc(-c3ccc4c(c3)C(C)(C)[C@H]3COc5cccc(F)c5[C@H]3N4)n2)CC1 [Number 142, 2-((6aR,12aS)-1-fluoro-6a,7,12,12a-tetrahydro-7,7-dimethyl-6H-chromeno[4,3-b]quinolin-9-yl)oxazole-(4-(4-ethanesulfonylpiperazin-1-yl)methanone)] the “ABCA1 Induction Fold Increase” value was 5 FOLD INCREASE.
For COc1ccccc1-c1ccc2c(c1)C(C)(C)C1COc3c(OC)cc(Cl)cc3C1N2 (stereo not shown) [Number 100, 1-(2-chloro-4-methoxy-7,7-dimethyl(7,12,12a,6a-tetrahydrochromano[4,3-b]quinolin-9-yl))-2-methoxybenzene], the “ABCA1 Induction Fold Increase” value was 3.0 FOLD INCREASE.

Same assay, conditions: Homo sapiens, 10 μM test compound, 18-20 hours, read-out: ABCA1 Induction Fold Increase over DMSO Vehicle
In the case of CCS(=O)(=O)N1CCN(C(=O)c2ccc3c(c2)C(C)(C)[C@@H]2COc4c(F)cccc4[C@H]2N3)CC1 [Number 139, ((6aS,12aS)-4-fluoro-6a,7,12,12a-tetrahydro-7,7-dimethyl-6H-chromeno[4,3-b]quinolin-9-yl)(4-ethanesulfonylpiperazin-1-yl)methanone], the fold induction at 10 µM is reported as 2.8.
Work on COc1cc(Br)cc2c1OC[C@@H]1[C@@H]2Nc2ccc(-c3cnco3)cc2C1(C)C [Number 150, (6aS,12aS)-2-bromo-6a,7,12,12a-tetrahydro-4-methoxy-7,7-dimethyl-9-(oxazol-5-yl)-6H-chromeno[4,3-b]quinoline] yielded a fold induction at 10 µM of 12.5.
Work on COc1cccc2c1[C@@H]1[C@@H](CO2)C(C)(C)c2ccccc2N1CC(=O)O [Number 156, 2-((6aS,12aS)-6a,7-dihydro-1-methoxy-7,7-dimethyl-6H-chromeno[4,3-b]quinolin-12(12aH)-yl)acetic acid] yielded a fold induction at 10 µM of 7.6.
COc1cccc2c1[C@H]1Nc3ccc(C(=O)N(C)C)cc3C(C)(C)[C@H]1CO2 [Number 123, (6aR,12aS)-6a,7,12,12a-tetrahydro-1-methoxy-N,N,7,7-tetramethyl-6H-chromeno[4,3-b]quinoline-9-carboxamide] gave a fold induction at 10 µM of 6.5.
CC1(C)C2=C(Nc3ccc(B(O)O)cc31)c1ccc(C(=O)O)cc1OC2 [Number 17, 9-(dihydroxyboramethyl)-7,7-dimethyl-7,12-dihydro-6H-chromeno[4,3-b]quinoline-3-carboxylic acid] gave a fold induction at 10 µM of 1.8.
COc1cccc2c1[C@@H]1[C@H](CO2)C(C)(C)c2ccccc2N1C1CCCCC1 [Number 166, (6aR,12aS)-12-cyclohexyl-6a,7,12,12a-tetrahydro-1-methoxy-7,7-dimethyl-6H-chromeno[4,3-b]quinoline] gave a fold induction at 10 µM of 12.5.
With CCN1c2ccccc2C(C)(C)[C@@H]2COc3cccc(OC)c3[C@H]21 [Number 163, (6aS,12aS)-12-ethyl-6a,7,12,12a-tetrahydro-1-methoxy-7,7-dimethyl-6H-chromeno[4,3-b]quinoline] the fold induction at 10 µM was 3.1.
Compound COc1cc(-c2c(C)noc2C)cc2c1OC[C@H]1[C@@H]2Nc2ccc(-c3cnco3)cc2C1(C)C [Number 165, (6aR,12aS)-6a,7,12,12a-tetrahydro-4-methoxy-7,7-dimethyl-2-(3,5-dimethylisoxazol-4-yl)-9-(oxazol-5-yl)-6H-chromeno[4,3-b]quinoline] has a fold induction at 10 µM of 7.4.
COc1cccc2c1[C@@H]1[C@@H](CO2)C(C)(C)c2ccccc2N1C1CCCCC1 [Number 167, (6aS,12aS)-12-cyclohexyl-6a,7,12,12a-tetrahydro-1-methoxy-7,7-dimethyl-6H-chromeno[4,3-b]quinoline] was tested, and the fold induction at 10 µM was 7.9.
